Source: patent US20180110777A1, “METHOD FOR REGULATION OF TELOMERE LENGTH” (The Johns Hopkins University, priority 2015, published 2018)

Legend:
[1] = test system: ATR kinase substrate Chk1; experiment: Western blot of ATR kinase substrate Chk1 phosphorylation; type: cell-based, mouse; conditions: cells pretreated, then exposed to camptothecin (CPT)
Description: To probe the role of ATM, the ADDIT assay was used in cells treated with the ATM specific inhibitor KU55933 (as described in Hickson et al., 2004, Cancer Research 64, 9152-9159) or with siRNA to ATM. To confirm the inhibition of ATM, the phosphorylation level was examined of the ATM substrate Kap1 and, as a control, an ATR kinase substrate Chk1 by western blot. Cultured cells were pretreated with KU55933, siA™ or DMSO control and then exposed to camptothecin (CPT), a DNA damaging agent.
To detect phospho-proteins, 1× lysis buffer made of final concentration of 1×RIPA™ (Cell Signaling, #98016S), 1× protease inhibitor cocktail, 1× PhosSTOP™ (Roche, 4906845001) was added directly to cells on the dish after washing with PBS. Protein concentration was measured with a BCA protein assay kit (Thermo, #23227). Typically 10 μg of protein from each sample was applied to SDS-PAGE gels (Biorad, #456-1084) and transferred to nitrocellulose membranes in transfer buffer. […] Band intensities were quantified using the Odyssey™ software (LI-COR) and normalized to Actin levels. […]

[2] = test system: PARP1-4; conditions: in vitro assays; cited from earlier work

SMILES	Chk1-S345 phosphorylation [1]	specificity to PARP1-4 [2]
O=c1cc(-c2cccc3c2Sc2ccccc2S3)oc(N2CCOCC2)c1 [KU55933]	not Chk1 phosphorylation	–
O=C(c1cc(Cc2n[nH]c(=O)c3ccccc23)ccc1F)N1CCN(C(=O)C2CC2)CC1 [Olaparib]	–	highly specific to PARP1-4
